Data on 17 molecules can be found in publication PMC11312933, “Mystery of the Passerini Reaction for the Synthesis of the Antimicrobial Peptidomimetics against Nosocomial Pathogenic Bacteria” (International Journal of Molecular Sciences, 2024).

For orientation: viability means the share of living cells, or the viability signal relative to a control. A higher viability goes with less harm to the cells. As a reminder, the IC50 is the midpoint of a concentration-inhibition curve. As usually defined, the melting point is the temperature of the solid-liquid transition.

≈ marks a conversion by molar mass, not a printed value.

One data set can be described thus: MTT cytotoxicity assay. To be noted: mouse. (In general: Tetrazolium dyes change colour on reduction, which living cells bring about.)
Data set [1] concerns E. coli (K12 (ATCC 25404), R2 (ATCC 39544), R3 (ATCC 11775), R4 (ATCC 39543)), A. baumannii (ATCC 17978), P. aeruginosa (ATCC 15442), E. cloacae (ATCC 49141) …. The data set is described as follows: Minimum inhibitory concentration (MIC), microtiter plate method with resazurin. Type of data set: cell-based, S. aureus. To be noted: Gram-negative and Gram-positive bacteria. The source says:
The reference bacterial strains of E.coli (K12 ATCC 25404, R2 ATCC 39544, R3 ATCC 11775, and R4 ATCC 39543) and Staphylococcus aureus strain (ATCC 23235), as well as Acinetobacter baumannii (ATCC 17978), Pseudomonas aeruginosa (ATCC 15442), and Enterobacter cloacae (ATCC 49141) were obtained from LGC Standards U.K. and were used according to the recommendation of ISO 11133 [30]. These strains were used to test the antibacterial activity of the analysed compounds by determining the minimum inhibitory concentration (MIC) and minimum bactericidal concentration (MBC), as described in [8, 9, 26, 27, 28, 29, 30, 31]. The results are shown in Figures S33 and S34 in the Supplementary Materials.
MIC and MBC were estimated using a microtiter plate method with sterile 48- or 96-well plates, which is precisely described in [9]. Briefly, MIC and MBC, defined as the lowest concentration of a bacteriostatic agent, were determined. Briefly, 50 μL of the analysed compounds and the appropriate bacterial strains were added to the first row of the plate. Then, 25 μL of sterile Tryptone Soya Broth (TSB) medium was added to the other wells, and serial dilutions were performed. Subsequently, 200 μL of inoculated TSB medium containing resazurin (0.02 mg/mL) as an indicator was added to all wells. TSB medium was inoculated with 10^6 colony-forming units (CFU)/mL (approximately 0.5 McFarland units) of the bacterial strains. The plates were incubated at 30 °C for 24 h. Changes in colour from blue to pink or yellowish with turbidity were considered positive, and the lowest concentration at which no visible change in colour occurred was recorded as the MIC, according to Kowalczyk et al.. Each experiment (both MIC and MBC) was repeated at least three times.
Background: The colour change of resazurin is a common sign of viable cells or microbes.

Data set [2] has as its system BALB/c3T3 mouse embryonic fibroblast cell line. The data set is described as follows: MTT cytotoxicity assay.
Experimental: The cytotoxic effects of the tested peptidomimetics 1–16 on BALB/c3T3 mouse fibroblast cells were determined using the MTT assay after 24 h of incubation at five different concentrations (1, 2, 4, 6, and 8 µg/mL). The MTT test is based on the ability of the mitochondrial dehydrogenase enzymes to convert an orange, water-soluble tetrazolium salt (3-(4,5-dimethylthiazol-2-yl)-2,5-diphenyltetrazolium bromide) into an insoluble formazan, which is a dark blue product of the above reaction. After dissolving the formazan crystals in DMSO or isopropanol, a coloured solution was formed, the intensity of which is measured spectrophotometrically within the wavelength range of 492–570 nm. The amount of coloured reduced MTT is proportional to the oxidative activity of the cell’s mitochondria and, under strictly defined experimental conditions, to the number of metabolically active (living) cells in the population. The MTT test can also be used to determine cell viability in populations of cells that no longer divide but are metabolically active.
The next data set relates to S. aureus. To be noted: against S. aureus; cited from earlier work.
Data set [3] has as its system S. aureus strain (ATCC 23235). The data set is classed as cell-based, Staphylococcus aureus. To be noted: S. aureus (ATCC 23235).

With `CC(=O)Oc1ccccc1C(OC(=O)Cc1ccccc1)C(=O)NCc1ccccc1` (stereo not drawn) [Compound 15, 1-(2-Acetoxyphenyl)-2-(benzylamino)-2-oxoethyl 2-phenylacetate], the viability at 24 h, 2 µg/mL in the data set “MTT cytotoxicity assay” came to 66.5%. As to “1-(7-Acetoxy-4-methyl-2-oxo-2H-chromen-8-yl)-2-((4-fluorobenzyl)amino)-2-oxoethyl 2-phenylacetate [Compound 1]”, the “spectrum of antibacterial activity” value in data set [1] was “broad-spectrum activity”. This molecule also returned an IC50 for fibroblasts in data set [2] (after 24 h of incubation) of 4.26 µg/mL. In the case of `Cc1cc(=O)oc2cc(OCc3ccc(-c4ccccc4)cc3)ccc12` [A], the IC50 in the data set with S. aureus was 9.7 µM. `CC(=O)Oc1ccc2c(C)cc(=O)oc2c1C(OC(=O)Cc1ccccc1)C(=O)NCc1ccc(F)cc1` (stereo not drawn) [Compound 6, 1-(7-Acetoxy-4-methyl-2-oxo-2H-chromen-8-yl)-2-((4-fluorobenzyl)amino)-2-oxoethyl 2-phenylacetate] showed a melting point of 56 to 59 °C. In addition, the viability at 24 h, 2 µg/mL in the data set “MTT cytotoxicity assay” amounted to 87%. For `COc1ccc(CNC(=O)C(OC(=O)Cc2ccccc2)c2c(OC(C)=O)ccc3c(C)cc(=O)oc23)cc1` (stereo not drawn) [Compound 2, 1-(7-Acetoxy-4-methyl-2-oxo-2H-chromen-8-yl)-2-((4-methoxybenzyl)amino)-2-oxoethyl 2-phenylacetate], the melting point lay in the range of 66 to 68 °C. In data set [1], the “spectrum of antibacterial activity” value is recorded as “broad-spectrum activity”. As to `Cc1onc(-c2ccccc2Cl)c1C(=O)N[C@@H]1C(=O)N2[C@@H]1SC(C)(C)[C@@H]2C(=O)O` [cloxacillin, reference compound], the viability in “MTT cytotoxicity assay” (BALB/c3T3 mouse embryonic fibroblast cells) was 85 to 89.9%. On to `COc1ccc(CNC(=O)C(OC(=O)Cc2ccccc2)c2c(OC(C)=O)ccc3c(C(F)(F)F)cc(=O)oc23)cc1` (stereo not drawn) [Compound 9, 1-(7-Acetoxy-2-oxo-4-(trifluoromethyl)-2H-chromen-8-yl)-2-((4-methoxybenzyl)amino)-2-oxoethyl 2-phenylacetate], for which the melting point was 54 to 58 °C. In addition, the “spectrum of antibacterial activity” value in data set [1] was “broad-spectrum activity”. The “activity against S. aureus” value in data set [3] is given as “very potent activity”. Take `Cc1cc(=O)oc2c(C)c(OCc3ccc(-c4ccccc4)cc3)ccc12` [Compound B]: the IC50 in the data set on S. aureus was 3 µM. With `COc1ccc(CNC(=O)C(OC(=O)Cc2ccccc2)c2ccccc2OC(C)=O)cc1` (stereo not drawn) [Compound 14, 1-(2-Acetoxyphenyl)-2-((4-methoxybenzyl)amino)-2-oxoethyl 2-phenylacetate], the IC50 in data set [2] (Mus musculus, BALB/c3T3, 24 h, read-out: IC50 for fibroblasts) amounted to 7.22 µg/mL (≈ 16.1 µM).

Molecule `CC(=O)Oc1ccc2c(C(F)(F)F)cc(=O)oc2c1C(OC(=O)Cc1ccccc1)C(=O)NCc1ccccc1` (stereo not drawn) registered a melting point of 54 to 57 °C. On the same count and under the same terms, as for `CC(=O)Oc1cc(Br)ccc1C(OC(=O)Cc1ccccc1)C(=O)NCc1ccccc1` (stereo not drawn), the figure is 122 to 124 °C; as for `COc1ccc(CNC(=O)C(O)c2ccc(Br)cc2O)cc1` (stereo not drawn), 96 to 100 °C; as for `COc1ccc(CNC(=O)C(OC(=O)Cc2ccccc2)c2ccc(Br)cc2OC(C)=O)cc1` (stereo not drawn), 107 to 108 °C.

In turn, `CC(=O)Oc1ccc2ccc(=O)oc2c1C(OC(=O)Cc1ccccc1)C(=O)NCc1ccccc1` (stereo not drawn) [Compound 3, 1-(7-Acetoxy-2-oxo-2H-chromen-8-yl)-2-(benzylamino)-2-oxoethyl 2-phenylacetate] returned a melting point of 64 to 66 °C. In addition, the “spectrum of antibacterial activity” value in data set [1] is given as “broad-spectrum activity”. In turn, `CC(=O)Oc1ccc2c(C(F)(F)F)cc(=O)oc2c1C(OC(=O)Cc1ccccc1)C(=O)NCc1ccc(F)cc1` (stereo not drawn) yielded a melting point of 51 to 55 °C. The same measure, in the same setting: with `CC(=O)Oc1ccc2ccc(=O)oc2c1C(OC(=O)Cc1ccccc1)C(=O)NCc1ccc(F)cc1` (stereo not drawn) the figure was 61 to 63 °C. On to `COc1ccc(CNC(=O)C(OC(=O)Cc2ccccc2)c2c(OC(C)=O)ccc3ccc(=O)oc23)cc1` (stereo not drawn) [Compound 4, 1-(7-Acetoxy-2-oxo-2H-chromen-8-yl)-2-((4-methoxybenzyl)amino)-2-oxoethyl 2-phenylacetate], for which the melting point is 57 to 59 °C. Moreover, the “spectrum of antibacterial activity” value in data set [1] is “broad-spectrum activity”.
